From the supplement of paper PMC10307832

How the values were obtained:
Experiment in all cases: relative viability (nuclei count vs DMSO), 5 days (fraction); higher = more cells survive
Dovitinib + OSI-027 = compound: CN1CCN(c2ccc3nc(-c4c(N)c5c(F)cccc5[nH]c4=O)[nH]c3c2)CC1 [Dovitinib] + COc1cccc2cc(-c3nc([C@H]4CC[C@H](C(=O)O)CC4)n4ncnc(N)c34)[nH]c12 [OSI-027] (partner 0.5 µM)
Method in brief: (§1)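 Lung cancer cell lines in 1536-well plates got either a single drug or a fixed anchor-drug dose together with five library-drug doses (not always all listed) in √10 steps, by pin tool, on the day after seeding. Nuclei were counted after 5 days, and relative viability is the treated-to-vehicle ratio of nuclei counts. Values are medians of duplicate plates.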

Dovitinib + AZD7762 = compound: CN1CCN(c2ccc3nc(-c4c(N)c5c(F)cccc5[nH]c4=O)[nH]c3c2)CC1 [Dovitinib] + NC(=O)Nc1cc(-c2cccc(F)c2)sc1C(=O)N[C@H]1CCCNC1 [AZD7762] (partner 0.2 µM)
Method in brief: as §1

Dovitinib + Foretinib = compound: CN1CCN(c2ccc3nc(-c4c(N)c5c(F)cccc5[nH]c4=O)[nH]c3c2)CC1 [Dovitinib] + COc1cc2c(Oc3ccc(NC(=O)C4(C(=O)Nc5ccc(F)cc5)CC4)cc3F)ccnc2cc1OCCCN1CCOCC1 [Foretinib] (partner 0.25 µM)
Method in brief: as §1

Dovitinib + Pemetrexed = compound: CN1CCN(c2ccc3nc(-c4c(N)c5c(F)cccc5[nH]c4=O)[nH]c3c2)CC1 [Dovitinib] + Nc1nc2[nH]cc(CCc3ccc(C(=O)N[C@@H](CCC(=O)O)C(=O)O)cc3)c2c(=O)[nH]1 [Pemetrexed] (partner 0.2 µM)
Method in brief: as §1

| Cell Line | relative viability (Dovitinib + OSI-027; first compound 0.02 µM) | relative viability (Dovitinib + OSI-027; first compound 0.06325 µM) | relative viability (Dovitinib + OSI-027; first compound 0.2 µM) | relative viability (Dovitinib + OSI-027; first compound 0.6325 µM) | relative viability (Dovitinib + OSI-027; first compound 2 µM) | relative viability (Dovitinib + AZD7762; first compound 0.02 µM) | relative viability (Dovitinib + AZD7762; first compound 0.06325 µM) | relative viability (Dovitinib + AZD7762; first compound 0.2 µM) | relative viability (Dovitinib + AZD7762; first compound 0.6325 µM) | relative viability (Dovitinib + AZD7762; first compound 2 µM) | relative viability (Dovitinib + Foretinib; first compound 0.02 µM) | relative viability (Dovitinib + Foretinib; first compound 0.06325 µM) | relative viability (Dovitinib + Foretinib; first compound 0.2 µM) | relative viability (Dovitinib + Foretinib; first compound 0.6325 µM) | relative viability (Dovitinib + Foretinib; first compound 2 µM) | relative viability (Dovitinib + Pemetrexed; first compound 0.02 µM) | relative viability (Dovitinib + Pemetrexed; first compound 0.06325 µM) | relative viability (Dovitinib + Pemetrexed; first compound 0.2 µM) | relative viability (Dovitinib + Pemetrexed; first compound 0.6325 µM) | relative viability (Dovitinib + Pemetrexed; first compound 2 µM) |
| --- | --- | --- | --- | --- | --- | --- | --- | --- | --- | --- | --- | --- | --- | --- | --- | --- | --- | --- | --- | --- |
| NCI-H441 | 0.639 | 0.565 | 0.682 | 0.61 | 0.644 | 1.17 | 0.977 | 1.22 | 1.2 | 1.27 | 0.832 | 1.08 | 0.774 | 1.11 | 1.05 | 0.257 | 0.266 | 0.296 | 0.271 | 0.24 |
| NCI-H650 | 0.503 | 0.515 | 0.538 | 0.521 | 0.565 | 1.05 | 1.35 | 0.951 | 1.08 | 1 | 0.955 | 1.02 | 1.1 | 1 | 1.15 | 0.908 | 0.856 | 0.898 | 0.983 | 0.956 |
| NCI-H1355 | 0.443 | 0.386 | 0.392 | 0.48 | 0.388 | 0.695 | 0.745 | 0.746 | 0.703 | 0.727 | 0.943 | 0.932 | 0.713 | 0.976 | 0.903 | 1.08 | 0.945 | 1.16 | 1.1 | 1.1 |
| NCI-H2347 | 0.568 | 0.265 | 0.471 | 0.545 | 0.529 | 0.701 | 0.606 | 0.864 | 0.774 | 0.754 | 1.58 | 0.902 | 0.83 | 1.2 | 1.02 | 0.479 | 0.53 | 0.415 | 0.467 | 0.475 |
| LCLC-97TM1 | 0.77 | 0.486 | 0.561 | 0.59 | 0.544 | 0.247 | 0.239 | 0.298 | 0.395 | 0.315 | 0.986 | 0.974 | 1.01 | 0.922 | 1.01 | 0.16 | 0.155 | 0.198 | 0.184 | 0.163 |
| EMC-BAC-2 | 0.484 | 0.27 | 0.409 | 0.381 | 0.461 | 1.21 | 1.06 | 1.1 | 1.08 | 1.16 | 1 | 0.982 | 0.991 | 0.948 | 0.599 | 0.555 | 0.442 | 0.487 | 0.445 | 0.459 |
| NCI-H1975 | 0.749 | 0.735 | 0.732 | 0.664 | 0.666 | 0.708 | 0.577 | 0.728 | 0.738 | 0.653 | 1.01 | 0.962 | 0.927 | 0.989 | 0.975 | 0.305 | 0.286 | 0.268 | 0.294 | 0.294 |
| BEN | 0.319 | 0.302 | 0.342 | 0.312 | 0.287 | 0.692 | 0.697 | 0.637 | 0.877 | 0.597 | 0.52 | 0.566 | 0.68 | 0.698 | 0.614 | 0.713 | 0.812 | 0.633 | 0.836 | 0.697 |
| NCI-H23 | 0.486 | 0.599 | 0.665 | 0.605 | 0.534 | 0.287 | 0.233 | 0.23 | 0.275 | 0.377 | 0.899 | 0.913 | 1.09 | 0.962 | 0.983 | 0.79 | 0.592 | 0.623 | 0.674 | 0.658 |
| CAL-12T | 0.839 | 0.768 | 0.913 | 0.569 | 0.742 | 0.648 | 0.664 | 0.558 | 0.659 | 0.505 | 0.986 | 1.12 | 1.07 | 1.1 | 1.12 | 1.11 | 1.16 | 1.21 | 1.24 | 1.17 |
| EPLC-272H | 0.258 | 0.336 | 0.3 | 0.28 | 0.241 | 0.281 | 0.218 | 0.197 | 0.218 | 0.239 | 0.634 | 0.841 | 0.732 | 0.747 | 0.687 | 0.408 | 0.35 | 0.274 | 0.398 | 0.372 |
| LCLC-103H | 0.415 | 0.477 | 0.523 | 0.452 | 0.479 | 0.777 | 0.802 | 0.784 | 0.704 | 0.699 | 0.901 | 0.674 | 0.826 | 0.79 | 0.764 | 0.494 | 0.457 | 0.475 | 0.434 | 0.459 |
| NCI-H2405 | 0.627 | 0.594 | 0.591 | 0.656 | 0.692 | 0.693 | 0.781 | 0.736 | 0.696 | 0.78 | 1.02 | 0.977 | 1.05 | 1.04 | 1.11 | 1.05 | 1.02 | 1.25 | 1.08 | 1.11 |
| HCC-15 | 0.658 | 0.68 | 0.741 | 0.656 | 0.711 | 1.05 | 1.17 | 1.1 | 1.19 | 1.32 | 1.03 | 0.971 | 1 | 1.06 | 1.03 | 0.225 | 0.228 | 0.213 | 0.231 | 0.216 |
| PC-3 [JPC-3] | 0.86 | 0.767 | 0.8 | 0.732 | 0.779 | 0.84 | 0.855 | 0.921 | 0.866 | 0.827 | 1.08 | 1 | 1.1 | 1.01 | 1.05 | 1.12 | 1.12 | 1.16 | 1.3 | 1.21 |
| NCI-H1944 | 0.426 | 0.383 | 0.398 | 0.39 | 0.431 | 0.564 | 0.788 | 0.531 | 0.523 | 0.475 | 0.833 | 0.906 | 0.864 | 0.903 | 0.86 | 0.583 | 0.649 | 0.677 | 0.739 | 0.597 |
